Results: PMC8617031, “Development of a BCL-xL and BCL-2 dual degrader with improved anti-leukemic activity,” (Nature Communications, 2021)
Values joined by “and” are separate entries in the source; they are usually repeats but may differ in a detail not shown here. Identical values can stand only once. Like-named read-outs stand apart in the source and are kept apart here.

Key:
[1] = Viability (MTS) of Hela cells; type: cell-based, human; settings: human, Hela cells; for viability at 72 h, 0.00137174 uM: MTS absorbance 490, Conc 0.00137174 uM; for viability at 72 h, 0.00411523 uM: MTS absorbance 490, Conc 0.00411523 uM; for viability at 72 h, 0.037037 uM: MTS absorbance 490, Conc 0.037037 uM; for viability at 72 h, 0.111111 uM: MTS absorbance 490, Conc 0.111111 uM; for viability at 72 h, 0.333333 uM: MTS absorbance 490, Conc 0.333333 uM; for viability at 72 h, 1 uM: MTS absorbance 490, Conc 1 uM; for viability at 72 h, 3 uM: MTS absorbance 490, Conc 3 uM
How it was run: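 Adherent cells treated after overnight attachment, nine concentrations in triplicate. After 72 h, MTS/PMS added and incubated 4 h at 37 °C before absorbance at 490 nm. Background-subtracted viability expressed as percent of untreated controls and fitted by non-linear regression.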

[2] = target: T1, BCL-2 (Homo sapiens, UniProt P10415); assay: BCL-2 degradation by immunoblot in Kasumi-1 cells; type: cell-based; settings: Fig. 7b; for BCL-2 level, bar graph (0 = 100): two replicate columns
T1 construct: endogenous in cells
Experimental: Tubulin was used as an equal loading control. […] For the viability assays, the data are presented as mean ± s.d. from three replicate cell cultures in a representative experiment. Similar results were also observed in two additional independent experiments. d Representative immunoblot analyses of Kasumi-1 cells 16 h after treatment as indicated. […] Data are representative of two independent experiments. The dotted line represents the value from DMSO-treated cells. Source data are provided as a Source data file.
Cells were collected, washed once with ice-cold phosphate-buffered saline, pH 7.2 (PBS, cat. no. 20012027; Thermo Fisher Scientific) and lysed in RIPA lysis buffer (Cat. No. BP-115DG, Boston Bio Products, Ashland, MA, USA) supplemented with protease and phosphatase inhibitor cocktails (Cat. No. PPC1010, Sigma-Aldrich, St. Louis, MO, USA) through sonication. The samples were centrifuged at 14,000 r.p.m. for 5 min and the supernatants were transferred into a new tube. The protein concentration in the supernatants was determined using the Pierce BCA protein Assay kit (cat. no. 23225, Thermo Fisher Scientific). The protein concentration was normalized, and the samples were reduced in 4× Laemmli’s SDS-sample buffer (cat. no. BP-110R, Boston Bio Products) and denatured at 95 °C for 5 min. An equal amount of protein samples (20–40 μg per lane) were resolved using precast 4–20% Tris-glycine gels (Mini-PROTEAN TGX, cat. no. 456–1094, Bio-Rad), and resolved proteins were transferred onto 0.2-µm pore size polyvinylidene difluoride (PVDF) blotting membranes (cat. no. LC2002, Thermo Fisher Scientific) using mini trans-blot electrophoretic transfer cell (Bio-Rad). The membranes were blocked with non-fat dry milk (5% wt/vol) in 1× Tris-buffered saline-Tween-20 (TBST, cat. no. J77500, Affymetrix) for 1 h at room temperature, and were subsequently probed with primary antibodies at a predetermined optimal concentration in non-fat dry milk (5% wt/vol in TBST) overnight at 4 °C. The membranes were washed three times (5 min each) in TBST and then incubated with horse radish peroxidase (HRP)-conjugated secondary antibodies for 1 h at room temperature. Following sufficient washing with TBST, the membranes were exposed with chemiluminescent HRP substrate (cat. no. WBKLS0500, MilliporeSigma), and the signal was detected using the ChemiDoc MP Imaging System (Bio-Rad) and quantified using the ImageJ (v1.53a) software from NIH.

[3] = read-out: cell viability normalised to control wells (mean of three replicates)
[4] = read-out: cell viability normalised to control wells (single replicate)

T1 sequence (P10415 whole entry): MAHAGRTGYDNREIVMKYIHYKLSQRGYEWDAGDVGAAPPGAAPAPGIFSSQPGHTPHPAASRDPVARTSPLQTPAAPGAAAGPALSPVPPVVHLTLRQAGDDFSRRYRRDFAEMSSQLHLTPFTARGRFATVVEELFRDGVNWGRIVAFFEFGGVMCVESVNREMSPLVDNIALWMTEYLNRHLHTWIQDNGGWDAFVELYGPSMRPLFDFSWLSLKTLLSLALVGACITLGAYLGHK

Structure (SMILES)	viability at 72 h, 0.00137174 uM [1, 3]	viability at 72 h, 0.00137174 uM [1, 4]	viability at 72 h, 0.00411523 uM [1, 3]	viability at 72 h, 0.00411523 uM [1, 4]	viability at 72 h, 0.037037 uM [1, 3]	viability at 72 h, 0.037037 uM [1, 4]	viability at 72 h, 0.111111 uM [1, 3]	viability at 72 h, 0.111111 uM [1, 4]	viability at 72 h, 0.333333 uM [1, 3]	viability at 72 h, 0.333333 uM [1, 4]	viability at 72 h, 1 uM [1, 3]	viability at 72 h, 1 uM [1, 4]	viability at 72 h, 3 uM [1, 3]	viability at 72 h, 3 uM [1, 4]	BCL-2 level, bar graph (0 = 100) ([2]; concentration 0.01)	BCL-2 level, bar graph (0 = 100) ([2]; concentration 0.03)	BCL-2 level, bar graph (0 = 100) ([2]; concentration 0.1)	BCL-2 level, bar graph (0 = 100) ([2]; concentration 0.3)	BCL-2 level, bar graph (0 = 100) ([2]; concentration 1)	BCL-2 degradation in Kasumi-1 cells (in words) ([2]; Kasumi-1 cells, 16 h)
Cc1ncsc1-c1ccc([C@H](C)NC(=O)[C@@H]2C[C@@H](O)CN2C(=O)[C@@H](NC(=O)CCCCCC(=O)N2CCN(CC[C@H](CSc3ccccc3)Nc3ccc(S(=O)(=O)NC(=O)c4ccc(N5CCN(CC6=C(c7ccc(Cl)cc7)CCC(C)(C)C6)CC5)cc4)cc3S(=O)(=O)C(F)(F)F)CC2)C(C)(C)C)cc1 [DT2216]	87.9%	92.3%	90.6%	96.4%	88.1%	89.4%	89.7%	92.2%	96.4%	102%	82.9%	80.4%	82.1%	78.4%	96 and 105	90 and 102	92 and 98	91 and 99	80 and 89	
CC1(C)CCC(c2ccc(Cl)cc2)=C(CN2CCN(c3ccc(C(=O)NS(=O)(=O)c4ccc(N[C@H](CCN5CCOCC5)CSc5ccccc5)c(S(=O)(=O)C(F)(F)F)c4)cc3)CC2)C1 [ABT263, navitoclax]	108%	115%	99.8%	106%	97%	103%	89.9%		80.4%	80.9%	81%	76.8%	80.1%	83.1%						
Cc1ncsc1-c1ccc([C@H](C)NC(=O)[C@@H]2C[C@@H](O)CN2C(=O)[C@@H](NC(=O)CCCCCCC(=O)N2CCN(C[C@]3(C)CCC(c4ccc(Cl)cc4)=C(CN4CCN(c5ccc(C(=O)NS(=O)(=O)c6ccc(N[C@H](CCN7CCOCC7)CSc7ccccc7)c(S(=O)(=O)C(F)(F)F)c6)cc5)CC4)C3)CC2)C(C)(C)C)cc1 [753b]															66 and 60	44 and 48	36 and 21	32 and 26	36 and 25	could also degrade BCL-2
